Measured values published in US9107879B1, “Methods of increasing the cytotoxicity of chemotherapeutic agents with multisubstrate inhibitors of histone, protein-lys, polyamine acetylation, and polyamine metabolism” (Vanderbilt University, priority 2010, dated 2015).

What was measured:
H358 lung cancer cells [1] = assay: 96-well MTS cell viability assay; assay type: cell-based
Procedure: (§1) Control cells were left untreated. […] Control cells were left untreated.
Cells were given fresh inhibitor on the first, second, and third days of treatment and viability was measured on the 4th day (i.e. 3 days post start of treatment).
(A) Structure of compound 2a. […] Averages of duplicate samples with standard deviations are shown.
(A) Structure of Spd-3a. (B) Western analysis of histone H3K9-acetylation and total histone H3, measured in control, untreated H358 lung cancer cells “C’ or in H358 cells incubated 12 hours in the presence of 50 μM Spd-2a or Spd-3a. Each lane represents 60 μg cellular protein. (C) [3H]-thymidine incorporation (counts per minute) into DNA of H358 cells during a 6 hour pulse beginning at 42 hours post-start of treatment. Treatments were as follows (bars 1-6 left to right): (1) control: no treatment; (2) CPT alone: 5 nM 18 hours; (3) 3a alone: 50 μM; (4-6) 3a+CPT: CPT (5 nm, 18 hours)+3a at indicated dose. After 18 hours, CPT was removed and medium was replaced with fresh medium containing Spd-3a at the indicated dose. Each bar represents the average of triplicates. (D) 3-day 96-well viability assay of H358 cells grown in the presence of increasing amounts of Spd-2a or Spd-3a, with or without CPT (5 nM 18 hours). […] Each data point represents the average of three wells.
Cells were plated in 96-well plates at 2000 cells per well and treated with the indicated doses of spd-3a. Cell viability was measured by the MTS assay 3 days later.
DLD-1 cells or H358 cells were plated in 96-well plates at 2000 cells per well and treated with the indicated doses of (A) spm-3 or (B) spm-2. (C) Cell viability was measured by the MTS assay 3 days later. Similar experiment using GT41 fibroblasts with spm2 or spm 3. Each assay point represents an average of duplicates.
Control cells received neither 1a nor camptothecin.
After overnight attachment, triplicate wells were treated with increasing concentrations of inhibitor 1a or 1b. Control wells were left untreated. One day later, and again 2 days later, the medium in the wells was removed and replaced with fresh medium containing 1a or 1b.

H358 lung cancer cells [2] = assay: [3H]-thymidine incorporation DNA synthesis assay; assay type: cell-based; settings: for inhibition of DNA synthesis, single agent (FIG. 25): 1, 10 or 50 μM for 12 hours
Procedure: (A) Structures of 1a, and the acetylated side chain of a lysine residue within the polypeptide chain of a protein targeted by the acetylating enzyme (R1 and R2 are the main chain elements on both sides of the lysyl residue). (B) [^3H]-thymidine incorporation into DNA of H358 cells pulsed for 6 hrs at three different time points after the addition of increasing concentrations of 1a, i.e., at 6-12 hrs (12 hr curve), at 18-24 hours (24 hr curve), or at 42-48 hrs (48 hr curve). Incorporation is represented as a percentage relative to control (untreated) cells. (C) Cell cycle analysis of propidium iodide-stained cells harvested at various times after addition of 50 μM 1a. % of cells in G1, S, and G2 represents the average of two independent profiles. (D) Western analysis of histone H3 lysine 9 acetylation, histone H3 lysine 56 acetylation, histone H3 lysine 9 methylation, and total histone H3, before “c” or at the indicated times after addition of 50 μM 1a. Each lane represents 60 μg cellular protein.
as §1
Cells were either labeled immediately before treatment (starting DNA synthesis rate), or subjected to the indicated treatments and then pulsed on successive days until day 4. DNA synthesis is represented as the percent of starting DNA synthesis rate. Viability was determined for each treatment condition 24 hours post-start of treatment by the trypan blue exclusion assay, with percentages of viable cells indicated to the right of the graph.
H358 cells (2,000/well) in 96-well plates were treated with 1, 10 or 50 μM of spd-1a, spd-2a, spd-3a, spm3, or spm2 for 12 hours. Triplicate wells of cells were pulsed 6 hours with 0.5 μCi [^3H]-thymidine (NEN, Boston Mass.) post-start of drug treatment, and harvested onto filter paper using a Brandel Harvester and subjected to scintillation counting. Untreated cells were pulsed 0-6 hrs to establish the initial rate of incorporation.
Cells were plated in 96-well plates (2000 cells per well to insure conditions for exponential growth for untreated cells over the time course of the experiment) and exposed to the following treatments: 1a (50 μM); camptothecin (Sigma, St Louis, Mo. 5 nM, 18 hours); cisplatin (Platinol, obtained through local pharmacies, 2 μM, 1 hour 15 minutes), 5-fluorouracil (5FU, Adrucil™, obtained through local pharmacies, 2 μM, 1 hour 15 minutes), Taxotere (provided by the late Dr. Pierre Potier, 5 nM, 18 hours). UVC treatment (40 J/m^2) using a Stratalinker™, Stratagene, La Jolla, Calif.) was carried using medium lacking phenol red. At 0-6 hr, 18-24 hr (day 1), 42-48 hr […], 66-72 hr (day 3), and 90-96 hr (day 4) post-start of treatment, triplicate wells were incubated with 0.5 μCi [^3H]-thymidine (NEN, Boston Mass.), harvested onto filter paper, and subjected to scintillation counting. Trypan blue exclusion assays for cell membrane integrity were carried out as known in the art.
The present inventors used [^3H]-thymidine incorporation assays to examine DNA synthesis in H358 lung cancer cells in the presence of varying concentrations of 1a. Cells were pulsed for 6 hours with [^3H]-thymidine at three different time points after the addition of 1a (i.e., at 6-12 hours, at 18-24 hours, and at 42-48 hours). The incorporation of [^3H]-thymidine into DNA decreased with increasing concentrations of 1a at all three time points, with the maximal effect occurring with the 6-12 hour pulse (FIG. 2B).
We then used [^3H]-thymidine incorporation assays to examine DNA synthesis in H358 lung cancer cells in the presence of 1a alone, or together with an 18 hour exposure to the DNA damaging drug, camptothecin (CPT), a plant alkaloid from which an important class of topoisomerase I-targeted chemotherapeutic agents (Hycamtin [topotecan] and Camptosar [irinotecan]) has been derived (Garcia-Carbonero, et al, 2002, Clin Cancer Res 8: 641-61). […]

Compound: CC(C)(COP(=O)(O)OP(=O)(O)OC[C@H]1O[C@@H](n2cnc3c(N)ncnc32)[C@H](O)[C@@H]1OP(=O)(O)O)[C@@H](O)C(=O)NCCC(=O)NCCSCC(=O)NCCCNCCCCN [1a, spermidine[N1]-CoA]
- 2-day cell viability, % of untreated cell viability (H358 lung cancer cells [1]; 5 nM camptothecin + increasing concentrations of 1a): less than 10%
- sensitization to cisplatin (CDDP), UVC irradiation and 5-FU in DNA synthesis assay (H358 lung cancer cells [2]; 50 μM 1a + cisplatin 2 μM, UVC 40 J/m2 or 5FU 2 μM): sensitized
- activity at 50 µM (H358 lung cancer cells [2]; Homo sapiens, NCI-H358, 50 μM 1a + 5 nM camptothecin (18 h), 48 hours post-initiation, read-out: [3H]-thymidine incorporation, % of control incorporation): < 20%
- IC50 (H358 lung cancer cells [2]; Homo sapiens, NCI-H358, 6-12 hour [3H]-thymidine pulse, read-out: IC50 for inhibition of DNA synthesis): 50 to 100 µM

Compound: CC(=O)NCCSCC(=O)NCCCNCCCCN [3a]
- suppression of 3-day cell viability in combination with camptothecin (H358 lung cancer cells [1]; 3a + CPT 5 nM 18 hours): effective
- inhibition of DNA synthesis, single agent (FIG. 25) (H358 lung cancer cells [2]): inhibit DNA synthesis
- suppression of DNA synthesis in combination with camptothecin (H358 lung cancer cells [2]; 3a + CPT 5 nM 18 hours, pulse from 42 hours): effective

Compound: CC[C@@]1(O)C(=O)OCc2c1cc1n(c2=O)Cc2cc3ccccc3nc2-1 [camptothecin]
- 2-day cumulative cell viability relative to untreated, single agent (H358 lung cancer cells [1]; 1a increasing concentrations, camptothecin 5 nM 18 hour): no effect
- effect on [3H]-thymidine incorporation, single agent (H358 lung cancer cells [2]; 1a 50 μM, camptothecin 5 nM (18 or 24 h)): no detectable effect

Compound: CC(=O)NCCSCC(=O)NCCCNCCCCNCCCN [spm-3]
- 3-day cell viability, single agent (H358 lung cancer cells [1]; single agent): effective as single agents
- inhibition of DNA synthesis, single agent (FIG. 25) (H358 lung cancer cells [2]): inhibit DNA synthesis
